Experimental findings from ChEMBL document CHEMBL5550201, “Discovery of a Highly Potent, Selective and Efficacious USP7 Degrader for the Treatment of Acute Lymphoblastic Leukemia” (J Med Chem, 2024) are described below.

Active and inactive are the calls of the source. The calls are words filed in the database; no cut-off is given here. Some results are limits rather than exact numbers.

Test [1] concerns the target T1, von Hippel-Lindau disease tumor suppressor/Ubiquitin carboxyl-terminal hydrolase 7 (Homo sapiens, UniProt Q93009+P40337). Nature of the test: PROTACT activity at USP7/VHL in human RS4;11 cells assessed as protein degradation at 10 nM measured after 24 hrs by Western blot analysis relative to control. In kind it is cell-based.
The target of test [2] is T1, von Hippel-Lindau disease tumor suppressor/Ubiquitin carboxyl-terminal hydrolase 7. Description: PROTACT activity at USP7/VHL in human RS4;11 cells assessed as protein degradation at 100 nM measured after 24 hrs by Western blot analysis relative to control. In kind it is cell-based.
Test [3] relates to RS4-11. Description: Antiproliferative activity against human RS4-11 cells with wild type p53 assessed as cell viability measured after 3 days by PMS-MTS assay. In kind it is functional, cell-based. The note with it: RS4-11, 72 h.
Test [4] has as its system RS4-11. Description: Antiproliferative activity against human RS4-11 cells with shp53 assessed as cell viability measured after 7 days by PMS-MTS assay. The class given is functional, cell-based. The note with it: RS4-11, 168 h.
The subject of test [5] is REH. Nature of the test: Antiproliferative activity against human REH cells with wild type p53 assessed as cell viability measured after 3 days by PMS-MTS assay. The note with it: 72 h. In kind it is functional, cell-based.
Test [6] deals with T1, von Hippel-Lindau disease tumor suppressor/Ubiquitin carboxyl-terminal hydrolase 7. Description: PROTACT activity at USP7/VHL in human RS4;11 cells assessed as protein degradation at 10 to 100 nM measured after 12 hrs by Western blot analysis. In kind it is cell-based. The note with it: dose 10-100 nM.
Test [7] has the same target. Nature of the test: PROTACT activity at USP7/VHL in human REH cells assessed as protein degradation at 10 to 100 nM measured after 12 hrs by Western blot analysis. The class given is cell-based. The note with it: dose 10-100 nM.
Test [8] shares this target. Description: PROTACT activity at USP7/VHL in human OCI-Ly10 cells assessed as protein degradation at 10 to 100 nM measured after 12 hrs by Western blot analysis. In kind it is cell-based. The note with it: dose 10-100 nM.
Test [9] addresses Protein cereblon/Ubiquitin carboxyl-terminal hydrolase 7 (Homo sapiens, UniProt Q93009+Q96SW2). Nature of the test: PROTACT activity at USP7/CRBN in human CAL-33 cells assessed as protein degradation measured after 72 hrs by immune blot analysis. In kind it is cell-based.
Test [10] deals with MDA-MB-468. Description: Antiproliferative activity against human MDA-MB-468 cells assessed as cell viability measured after 6 days by Celltiter glo2.0 cell viability assay. The class given is functional, cell-based. The note with it: MDA-MB-468, 144 h.
For test [11], the system named is BT-549. Description: Antiproliferative activity against human BT-549 cells assessed as cell viability measured after 6 days by Celltiter glo2.0 cell viability assay. In kind it is functional, cell-based. The note with it: BT-549, 144 h.
Test [12] concerns the target von Hippel-Lindau disease tumor suppressor/USP7. Nature of the test: PROTACT activity at USP7 (unknown origin) /E3 ligase (unknown origin) assessed as protein degradation.

T1 sequence (P40337 whole entry, looked up): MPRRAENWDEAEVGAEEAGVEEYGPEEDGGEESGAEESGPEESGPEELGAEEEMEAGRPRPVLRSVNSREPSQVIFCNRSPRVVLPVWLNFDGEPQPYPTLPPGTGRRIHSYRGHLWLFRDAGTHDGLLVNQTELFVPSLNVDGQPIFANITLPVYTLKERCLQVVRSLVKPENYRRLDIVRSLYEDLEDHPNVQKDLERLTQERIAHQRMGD
T1 sequence (Q93009 whole entry, looked up): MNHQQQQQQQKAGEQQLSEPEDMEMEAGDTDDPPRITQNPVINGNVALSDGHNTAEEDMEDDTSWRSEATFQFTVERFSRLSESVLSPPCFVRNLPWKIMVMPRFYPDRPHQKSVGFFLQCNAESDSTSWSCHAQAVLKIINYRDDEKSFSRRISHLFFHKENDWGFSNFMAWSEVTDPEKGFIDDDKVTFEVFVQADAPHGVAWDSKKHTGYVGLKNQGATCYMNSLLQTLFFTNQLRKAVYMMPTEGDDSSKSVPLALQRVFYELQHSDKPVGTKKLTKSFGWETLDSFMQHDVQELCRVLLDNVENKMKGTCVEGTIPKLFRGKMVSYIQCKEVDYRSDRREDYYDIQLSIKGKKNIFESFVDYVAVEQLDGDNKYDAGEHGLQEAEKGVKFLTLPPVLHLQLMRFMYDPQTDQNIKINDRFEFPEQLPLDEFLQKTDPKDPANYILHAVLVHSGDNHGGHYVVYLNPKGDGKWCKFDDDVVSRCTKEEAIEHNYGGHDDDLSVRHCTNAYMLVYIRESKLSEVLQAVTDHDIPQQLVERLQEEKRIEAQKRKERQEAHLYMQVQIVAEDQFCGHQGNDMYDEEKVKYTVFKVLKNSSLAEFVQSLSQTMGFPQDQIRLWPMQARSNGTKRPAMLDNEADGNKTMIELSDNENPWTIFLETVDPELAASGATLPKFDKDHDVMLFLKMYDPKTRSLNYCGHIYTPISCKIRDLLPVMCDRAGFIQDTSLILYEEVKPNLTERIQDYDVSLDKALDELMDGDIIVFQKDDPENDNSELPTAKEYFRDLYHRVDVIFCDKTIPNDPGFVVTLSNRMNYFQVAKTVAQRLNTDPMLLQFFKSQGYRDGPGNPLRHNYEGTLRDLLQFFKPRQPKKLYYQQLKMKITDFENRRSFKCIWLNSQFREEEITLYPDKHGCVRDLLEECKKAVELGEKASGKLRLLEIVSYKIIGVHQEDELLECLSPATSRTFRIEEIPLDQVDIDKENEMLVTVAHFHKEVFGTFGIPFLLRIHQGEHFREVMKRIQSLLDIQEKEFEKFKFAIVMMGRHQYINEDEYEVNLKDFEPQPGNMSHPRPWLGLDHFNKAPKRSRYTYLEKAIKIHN
Chain of Protein cereblon/Ubiquitin carboxyl-terminal hydrolase 7 (Q93009 whole entry): as the sequence (Q93009 whole entry, looked up) above
Chain of Protein cereblon/Ubiquitin carboxyl-terminal hydrolase 7 (Q96SW2 whole entry): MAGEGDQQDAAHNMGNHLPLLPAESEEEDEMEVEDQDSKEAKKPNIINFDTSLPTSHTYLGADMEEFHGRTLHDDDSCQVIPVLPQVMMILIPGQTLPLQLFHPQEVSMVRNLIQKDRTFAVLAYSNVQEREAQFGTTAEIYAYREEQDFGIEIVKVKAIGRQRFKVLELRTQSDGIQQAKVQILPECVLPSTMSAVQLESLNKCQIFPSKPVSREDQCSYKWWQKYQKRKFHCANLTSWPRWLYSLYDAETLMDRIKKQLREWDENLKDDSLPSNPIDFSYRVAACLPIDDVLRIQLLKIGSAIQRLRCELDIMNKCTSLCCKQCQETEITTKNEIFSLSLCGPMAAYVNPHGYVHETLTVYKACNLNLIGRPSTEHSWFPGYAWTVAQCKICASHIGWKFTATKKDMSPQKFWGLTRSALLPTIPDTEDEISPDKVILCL

Regarding `Cc1ncsc1-c1ccc([C@H](C)NC(=O)[C@@H]2C[C@@H](O)CN2C(=O)[C@@H](c2cc(N3CCC(CN4CCC(NCc5ccc(-c6c7ncn(CC8(O)CCN(C(=O)C[C@@H](C)c9ccccc9)CC8)c(=O)c7nn6C)cc5)CC4)CC3)no2)C(C)C)cc1`, the figures for the Activity in [1] and in test [2] were 22.2% and 37.7%, respectively.
`C[C@H](CC(=O)N1CCC(O)(Cn2cnc3c(-c4ccc(CN)cc4)n(C)nc3c2=O)CC1)c1ccccc1`: the values for the IC50 in test [3], in test [4] and in test [5] were 69 nM, over 20000 nM and 20.3 nM, respectively.
Regarding `Cc1ncsc1-c1ccc([C@H](C)NC(=O)[C@@H]2C[C@@H](O)CN2C(=O)[C@@H](c2cc(N3CCC(CN4CCC(CNCc5ccc(-c6c7ncn(CC8(O)CCN(C(=O)C[C@@H](C)c9ccccc9)CC8)c(=O)c7nn6C)cc5)CC4)CC3)no2)C(C)C)cc1`, the Activity in test [1] is 50.8%; in test [2], 73.5%.
Regarding `Cc1ncsc1-c1ccc([C@H](C)NC(=O)[C@@H]2C[C@H](O)CN2C(=O)[C@@H](c2cc(N3CCN(Cc4ccc(-c5c6ncn(CC7(O)CCN(C(=O)C[C@@H](C)c8ccccc8)CC7)c(=O)c6nn5C)cc4)CC3)no2)C(C)C)cc1`, the outcome in [6], in test [7] and in test [8] was inactive. Further, the IC50 in [3] was 873 nM; in [4], over 20000 nM; in test [5], 7390 nM.
As to `Cc1ncsc1-c1ccc([C@H](C)NC(=O)[C@@H]2C[C@@H](O)CN2C(=O)[C@@H](c2cc(N3CCC(CN4CC(CNCc5ccc(-c6c7ncn(CC8(O)CCN(C(=O)C[C@@H](C)c9ccccc9)CC8)c(=O)c7nn6C)cc5)C4)CC3)no2)C(C)C)cc1`, the Activity in [1] was determined as 35%; in [2], 55.1%.
The corresponding values for `Cc1ncsc1-c1ccc([C@H](C)NC(=O)[C@@H]2C[C@@H](O)CN2C(=O)[C@@H](c2cc(N3CCC(CN4CC(NCc5ccc(-c6c7ncn(CC8(O)CCN(C(=O)C[C@@H](C)c9ccccc9)CC8)c(=O)c7nn6C)cc5)C4)CC3)no2)C(C)C)cc1` are 0.4% and 60.2%.
As to `O=C1CCC(N2Cc3c(CCCCCN4CCN(CCC(=O)Nc5ccc6c(=O)n(CC7(O)CCN(C(=O)C(CCCNC(=O)c8ccc9c(Cl)c%10c(nc9c8)CCCC%10)Cc8ccccc8)CC7)cnc6c5)CC4)cccc3C2=O)C(=O)N1` (configuration not stated), the DC50 in [9] came out at 4.3 nM. Further, the IC50 came to 1800 nM in [10] and 2800 nM in test [11].
For `Cc1ncsc1-c1ccc([C@H](C)NC(=O)[C@@H]2C[C@@H](O)CN2C(=O)[C@@H](c2cc(N3CCC(N4CC(NCc5ccc(-c6c7ncn(CC8(O)CCN(C(=O)C[C@@H](C)c9ccccc9)CC8)c(=O)c7nn6C)cc5)C4)CC3)no2)C(C)C)cc1`, the Activity in [1] came out at 16%; in test [2], 16.9%.
The corresponding values for `Cc1ncsc1-c1ccc([C@H](C)NC(=O)[C@@H]2C[C@@H](O)CN2C(=O)[C@@H](NC(=O)CCCCCNCc2ccc(-c3c4ncn(CC5(O)CCN(C(=O)C[C@@H](C)c6ccccc6)CC5)c(=O)c4nn3C)cc2)C(C)(C)C)cc1` are 38% and 56.5%.
The corresponding values for `Cc1ncsc1-c1ccc([C@H](C)NC(=O)[C@@H]2C[C@@H](O)CN2C(=O)[C@@H](NC(=O)CCCCCCCCNCc2ccc(-c3c4ncn(CC5(O)CCN(C(=O)C[C@@H](C)c6ccccc6)CC5)c(=O)c4nn3C)cc2)C(C)(C)C)cc1` are 26.1% and 39.1%.
The corresponding values for `Cc1ncsc1-c1ccc([C@H](C)NC(=O)[C@@H]2C[C@@H](O)CN2C(=O)[C@@H](NC(=O)CCCCCCCCCCNCc2ccc(-c3c4ncn(CC5(O)CCN(C(=O)C[C@@H](C)c6ccccc6)CC5)c(=O)c4nn3C)cc2)C(C)(C)C)cc1` are 30.1% and 66.7%.
In the case of `Cc1ncsc1-c1ccc([C@H](C)NC(=O)[C@@H]2C[C@@H](O)CN2C(=O)[C@@H](NC(=O)CCCCCCCCCNCc2ccc(-c3c4ncn(CC5(O)CCN(C(=O)C[C@@H](C)c6ccccc6)CC5)c(=O)c4nn3C)cc2)C(C)(C)C)cc1`, the Activity in test [1] came to 29.2%; in test [2] it was 55.1%.
The corresponding values for `Cc1ncsc1-c1ccc([C@H](C)NC(=O)[C@@H]2C[C@@H](O)CN2C(=O)[C@@H](NC(=O)CCOCCOCCNCc2ccc(-c3c4ncn(CC5(O)CCN(C(=O)C[C@@H](C)c6ccccc6)CC5)c(=O)c4nn3C)cc2)C(C)(C)C)cc1` are 12.8% and 26.8%.
With `C[C@H](CC(=O)N1CCC(O)(Cn2cnc3c(-c4ccc(CNCCCCCCCCCCCNc5cccc6c5C(=O)N(C5CCC(=O)NC5=O)C6=O)cc4)n(C)nc3c2=O)CC1)c1ccccc1` (some centres not stated), the DC50 in test [12] is about 33 nM.
Take `Cc1ncsc1-c1ccc([C@H](C)NC(=O)[C@@H]2C[C@@H](O)CN2C(=O)[C@@H](NC(=O)CCCCCCCCCCCNCc2ccc(-c3c4ncn(CC5(O)CCN(C(=O)C[C@@H](C)c6ccccc6)CC5)c(=O)c4nn3C)cc2)C(C)(C)C)cc1`: the Activity in test [1] is 31.9%; in [2] it was 75.5%.
Taken in the same sequence, the figures for `Cc1ncsc1-c1ccc([C@H](C)NC(=O)[C@@H]2C[C@@H](O)CN2C(=O)[C@@H](c2cc(N3CCC(N4CC(CNCc5ccc(-c6c7ncn(CC8(O)CCN(C(=O)C[C@@H](C)c9ccccc9)CC8)c(=O)c7nn6C)cc5)C4)CC3)no2)C(C)C)cc1` were 15.5% and 25.6%.
The corresponding values for `Cc1ncsc1-c1ccc([C@H](C)NC(=O)[C@@H]2C[C@@H](O)CN2C(=O)[C@@H](c2cc(N3CCC(N4CCC(NCc5ccc(-c6c7ncn(CC8(O)CCN(C(=O)C[C@@H](C)c9ccccc9)CC8)c(=O)c7nn6C)cc5)CC4)CC3)no2)C(C)C)cc1` are 25.6% and 37.3%.
Consider `Cc1ncsc1-c1ccc([C@H](C)NC(=O)[C@@H]2C[C@@H](O)CN2C(=O)[C@@H](NC(=O)CCCCCCCNCc2ccc(-c3c4ncn(CC5(O)CCN(C(=O)C[C@@H](C)c6ccccc6)CC5)c(=O)c4nn3C)cc2)C(C)(C)C)cc1`, for which the Activity in test [1] came to 46.9%; in test [2] it was 58.1%.
Taken in the same sequence, the figures for `Cc1ncsc1-c1ccc([C@H](C)NC(=O)[C@@H]2C[C@@H](O)CN2C(=O)[C@@H](NC(=O)CCOCCOCCOCCOCCNCc2ccc(-c3c4ncn(CC5(O)CCN(C(=O)C[C@@H](C)c6ccccc6)CC5)c(=O)c4nn3C)cc2)C(C)(C)C)cc1` were 13% and 44.4%.
On to `Cc1ncsc1-c1ccc([C@H](C)NC(=O)[C@@H]2C[C@@H](O)CN2C(=O)[C@@H](c2cc(N3CCC(CNCc4ccc(-c5c6ncn(CC7(O)CCN(C(=O)C[C@@H](C)c8ccccc8)CC7)c(=O)c6nn5C)cc4)CC3)no2)C(C)C)cc1`, for which the Activity in [1] amounted to 69.5%; in [2] it was 91.3%.
Taken in the same sequence, the figures for `Cc1ncsc1-c1ccc([C@H](C)NC(=O)[C@@H]2C[C@@H](O)CN2C(=O)[C@@H](NC(=O)CCOCCOCCOCCNCc2ccc(-c3c4ncn(CC5(O)CCN(C(=O)C[C@@H](C)c6ccccc6)CC5)c(=O)c4nn3C)cc2)C(C)(C)C)cc1` were 26.1% and 33.6%.
